Earlier results on two compounds are cited in patent US20260216162A1, “SELECTIVE FIASMA TREATMENT” (VALO HEALTH, INC., priority 2023, published 2026).

Broadly, the Log P is the decadic logarithm of the partition coefficient of the neutral form, usually between octanol and water.

For data set [1], the system named is acid sphyingomyelinase (ASMase). Conditions: final concentration of 10 µM, 30 minutes, 37° C.; normalized to control cells treated with the solvent alone.

On to `Fc1ccc([C@@H]2CCNC[C@H]2COc2ccc3c(c2)OCO3)cc1` [Paroxetine], for which the “Log P” value is 3.9. Also, the “Residual ASMase Activity (%)” value in data set [1] was 31.7%.

For the compound `CNCCC(Oc1ccc(C(F)(F)F)cc1)c1ccccc1` (stereo not drawn) [Fluoxetine], the “Residual ASMase Activity (%)” value in data set [1] is given as 13.0%.
